# Data: patent publication US7863324B2, “Chroman-derived compounds for the treatment of cancer” (Wisconsin Alumni Research Foundation, priority 2003, dated 2011)
# “And” between values parts separate entries of the source, which are not always exact repeats. Identical values can stand only once. “Also recorded” adds a separate entry of the source. Like-named read-outs stand apart in the source and are kept apart here.
# Legend:
# [1] = target: T1, androgen receptor in LNCaP cells (functional mutant AR) (Homo sapiens, UniProt P10275, T878A); assay: Androgen receptor binding competition assay (3H-R1881) in LNCaP cells
# T1 construct: host or cells: LNCaP
# T1 sequence (P10275 1-920 T878A): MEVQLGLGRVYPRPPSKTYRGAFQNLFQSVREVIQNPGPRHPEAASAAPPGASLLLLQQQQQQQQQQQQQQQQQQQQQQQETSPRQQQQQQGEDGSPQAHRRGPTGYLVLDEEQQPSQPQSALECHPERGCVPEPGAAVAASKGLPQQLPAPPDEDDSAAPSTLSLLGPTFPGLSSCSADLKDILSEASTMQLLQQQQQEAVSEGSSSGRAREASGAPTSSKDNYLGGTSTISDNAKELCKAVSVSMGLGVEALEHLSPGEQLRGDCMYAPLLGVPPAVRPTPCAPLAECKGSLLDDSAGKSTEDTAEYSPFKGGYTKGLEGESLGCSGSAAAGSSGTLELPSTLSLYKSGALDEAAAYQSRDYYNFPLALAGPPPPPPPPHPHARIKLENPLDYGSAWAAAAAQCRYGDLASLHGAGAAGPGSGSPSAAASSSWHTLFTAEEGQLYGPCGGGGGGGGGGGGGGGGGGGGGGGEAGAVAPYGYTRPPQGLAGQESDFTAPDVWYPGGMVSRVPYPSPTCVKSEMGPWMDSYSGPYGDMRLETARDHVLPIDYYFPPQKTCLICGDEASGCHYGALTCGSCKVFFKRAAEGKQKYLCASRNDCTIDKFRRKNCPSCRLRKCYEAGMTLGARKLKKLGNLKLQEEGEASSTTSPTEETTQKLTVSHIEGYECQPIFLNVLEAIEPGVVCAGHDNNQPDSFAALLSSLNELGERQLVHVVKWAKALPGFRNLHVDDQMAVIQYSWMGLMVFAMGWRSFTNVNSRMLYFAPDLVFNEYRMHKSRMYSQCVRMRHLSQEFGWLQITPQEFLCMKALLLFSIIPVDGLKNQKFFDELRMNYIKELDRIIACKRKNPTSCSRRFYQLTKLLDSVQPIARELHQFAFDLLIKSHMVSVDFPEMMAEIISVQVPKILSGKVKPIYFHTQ
# Protocol: (§1) Androgen receptor binding competition assay. An androgen receptor binding competition assay was performed as previously described (22). LNCaP or LAPC4 prostate carcinoma cells were plated in 12-well tissue culture dishes (Costar, Corning, N.Y.) at 3.0×10^5 cells per well in phenol-red free DMEM/CSS 3 d prior to analysis. For competitor analysis, DMEM/CSS was removed by aspiration and replaced with 1 mL of phenol-red free DMEM containing 1 nM ^3H-R1881, 1 μM triamcinolone acetonide, and competitor at the specified concentrations for 2 h at 37° C. in a 5% CO2 incubator. […] Cells were washed twice with 1 mL phenol red-free DMEM and placed in 8.0 mL of ScintiVerse II Scintillation Cocktail (Fisher Scientific, Pittsburgh, Pa.) for determination of radioactivity (i.e., dpm) using a Beckman LS 6000TA Liquid Scintillation System (Beckman Instruments Inc., Fullerton, Calif.).
# [2] = test system: AR protein levels in LNCaP cells; assay: Immunoblot analysis of AR protein levels; type: cell-based, human; conditions: 30 μM compound, 5 d, medium with 5% serum
# Protocol: Immunoblot analysis of AR protein levels. LNCaP cells were plated at a density of 1×10^6 cells per 100 mm cell culture plate in 10 ml of DMEM/FBS and maintained in incubators at 37° C. in 5% CO2. […] Membranes were then incubated with a secondary horseradish peroxidase-conjugated anti-mouse antibody (Amersham Pharmacia Biotech, Piscataway, N.J.) and analyzed using the Enhanced Chemiluminescence Plus reagent (Amersham Pharmacia Biotech). Autoradiograms were prepared by exposing the blots to BioMax Light X-ray film (Eastman Kodak Co., Rochester, N.Y.) and developed using a CURIX 60 CP Processor (Agfa, Ridgefield Park, N.J.).
# LNCaP cells = assay: Cell growth analysis (Hoechst DNA assay), LNCaP; type: cell-based, human; conditions: 4 d
# Protocol: (§2) Cell growth and viability analyses. Five thousand LNCaP or LAPC4 cells were plated in each well of 96-well plates (Costar) in 100 μl of DMEM/CSS. Two to 3 d after plating, cells were treated by adding 100 μl of DMEM/CSS containing 2× the concentration of the specified treatment to each well. Four d after treatment, the relative cell number was estimated by the determining DNA concentration of each well using a Hoechst-based fluorescence DNA assay, as previously described (23). Growth analysis with DU145 cells was performed similar to those with LNCaP and LAPC4 cells except DUI45 cells were initially seeded at 500 cells per well. Cell viability was determined by trypan blue exclusion and quantified by light microscopic analysis using a hemacytometer.
# [3] = test system: PSA secretion from LNCaP cells; assay: Androgen-induced PSA secretion from LNCaP cells; type: cell-based, human; conditions: 48 h
# Protocol: Determination of secreted PSA levels. LNCaP cells were cultured in 96 well plates (Costar) at 5,000 cells per well in DMEM/CSS 1 d before treatment. Forty-eight h after treatment, PSA levels in cell culture media were determined using the Tandem-MP PSA kit (Beckman Coulter, Inc.) according to manufacturer's instructions. PSA levels were normalized to DNA levels as determined using a Hoechst-based fluorescence DNA assay (23).
# [4] = target: androgen receptor in LAPC4 cells (normal human AR) (Homo sapiens, UniProt P10275); assay: Androgen receptor binding competition assay (3H-R1881) in LAPC4 cells
# Protocol: as §1
# [5] = test system: MMTV promoter activity in LNCaP cells; assay: Androgen-stimulated MMTV promoter luciferase reporter assay, LNCaP; type: cell-based, human; conditions: for decrease of R1881-induced luciferase expression: 24 h
# Protocol: (§3) Androgen-stimulated promoter reporter assay analysis. LNCaP and LAPC4 prostate carcinoma cell lines were cultured in 12-well cell culture plates (Costar) in DMEM/CSS 2 to 3 d before transfection. Androgen-induced trancriptional activation was determined using a reporter construct with an MMTV promoter that regulates the expression of luciferase (24). LNCaP and LAPC4 cells were transfected with the MMTV/luciferase plasmid using the Effectene Transfection Reagent (Qiagen Inc., Valencia, Calif.), according to the manufacturer's instructions. Twenty-four h after transfection, cells were treated with R1881 with or without test reagents at the specified concentrations. Cell extracts were acquired 24 to 48 h after treatment by removing medium, washing 1× with PBS, and obtaining extract with 200 μL of 1× Reporter Lysis Buffer (Promega, Madison, Wis.). Luciferase activity was determined as previously described (24).
# Water solubility = type: physicochemical; conditions: cell culture studies
# [6] = Protocol: The oral toxicity of PMCol was determined in 6 month-old male FVB mice. A single high oral dose of 1000 mg/kg PMCol in sesame oil was administered to 4 mice by gavage. Four control mice received only sesame oil by gavage (vehicle control). […] In a second study, four 6 month-old male FVB mice received 200 mg/kg PMCol daily in sesame oil by gavage for 10 days. Three mice receiving only sesame oil (vehicle control) were used as controls. Body weights were determined daily and all mice were autopsied to examine gross organ changes on day 11.
# LAPC4 cells = assay: Cell growth analysis (Hoechst DNA assay), LAPC4; type: cell-based, human; conditions: medium with 5% serum, 4 d
# Protocol: as §2
# [7] = test system: MMTV promoter activity in LAPC4 cells; assay: Androgen-stimulated MMTV promoter luciferase reporter assay, LAPC4; type: cell-based, human
# Protocol: as §3
# [8] = test system: androgen receptor protein levels in LNCaP cells; conditions: cited from earlier work
# [9] = general statement; cited from earlier work
# androgen receptor in LAPC4 cells (normal human AR), sequence (P10275 whole entry): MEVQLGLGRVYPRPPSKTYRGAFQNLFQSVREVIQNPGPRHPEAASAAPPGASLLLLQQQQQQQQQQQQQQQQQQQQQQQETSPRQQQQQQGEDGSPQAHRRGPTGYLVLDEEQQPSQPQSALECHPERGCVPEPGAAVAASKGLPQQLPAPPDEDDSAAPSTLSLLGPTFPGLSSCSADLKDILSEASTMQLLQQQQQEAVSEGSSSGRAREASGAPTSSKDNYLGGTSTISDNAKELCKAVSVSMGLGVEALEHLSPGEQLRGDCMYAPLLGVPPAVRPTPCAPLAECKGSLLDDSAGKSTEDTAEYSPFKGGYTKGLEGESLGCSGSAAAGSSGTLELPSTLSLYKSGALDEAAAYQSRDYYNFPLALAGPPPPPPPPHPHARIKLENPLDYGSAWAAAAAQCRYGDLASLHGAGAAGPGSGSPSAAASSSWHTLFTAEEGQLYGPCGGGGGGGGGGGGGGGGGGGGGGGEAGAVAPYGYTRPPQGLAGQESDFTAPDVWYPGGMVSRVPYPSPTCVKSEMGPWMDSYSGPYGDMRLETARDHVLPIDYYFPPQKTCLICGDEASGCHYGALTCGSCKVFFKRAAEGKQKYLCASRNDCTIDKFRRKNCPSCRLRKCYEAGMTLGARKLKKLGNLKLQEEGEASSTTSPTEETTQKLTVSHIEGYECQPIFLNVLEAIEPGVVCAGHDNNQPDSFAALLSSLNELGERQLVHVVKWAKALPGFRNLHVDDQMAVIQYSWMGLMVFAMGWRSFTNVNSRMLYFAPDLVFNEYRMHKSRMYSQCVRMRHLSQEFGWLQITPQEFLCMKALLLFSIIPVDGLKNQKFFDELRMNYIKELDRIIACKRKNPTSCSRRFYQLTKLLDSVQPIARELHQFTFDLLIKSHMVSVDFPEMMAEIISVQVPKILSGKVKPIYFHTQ
smiles,measurement,setting,value
"Cc1cc(C)c2c(c1C)OC(C)(C)CC2 [PMC, 2,2,5,7,8-pentamethylchroman, reference compound]",anti-androgenic activity in 3H-R1881 competition compared with PMCol,"[1]; LNCaP cells, FIG. 2A",less anti-androgenic activity than PMCol
same,AR protein levels,[2],did not result in altered AR protein levels; also recorded: not significantly altered
same,shift of R1881-stimulated biphasic LNCaP growth curve,LNCaP cells; 30 μM compound,"more modest, but significant, shift to the right"
same,R1881 concentration giving in control cells the growth response equivalent to that at 0.3 nM R1881 under treatment,"LNCaP cells; LNCaP, 30 μM compound",0.03 nM
same,decrease of R1881-stimulated PSA levels,"[3]; 1.0 nM R1881, 30 μM compound",20%
"Cc1c(C)c2c(c(C)c1O)CCC(C)(C)O2 [PMCol, 2,2,5,7,8-pentamethyl-6-chromanol]",decrease in 3H-R1881 binding,[4]; 30 μM compound,75%
same,IC50,[4]; against 1 nM R1881,~10 µM
same,decrease of R1881-induced luciferase expression,"[5]; 1.0 nM R1881, 25 μM compound",50%
same,decrease of R1881-induced luciferase expression,"[5]; 1.0 nM R1881, 50 μM compound",70%
same,"MMTV promoter activity, compound alone",[5]; no R1881,no effect
same,water solubility,Water solubility,sufficiently water soluble to permit studies in cell culture
same,potency at competing for 3H-R1881 relative to bicalutamide (fold less potent),[1]; LNCaP cells,approximately 10 fold
same,IC50,"[1]; LNCaP cells, against 1 nM 3H-R1881, estimated (FIG. 2A), read-out: IC50 for competition of 3H-R1881 binding",~10 µM and 7.2 µM
same,IC50,"[1]; repeated studies, data not shown, read-out: IC50 values, repeated studies of competition for 3H-R1881 binding",5 to 15 µM
same,gross changes in organs at autopsy,"[6]; 200 mg/kg daily by gavage for 10 days, autopsy day 11",No gross changes in organs
same,change in animal body mass,"[6]; mouse, in vivo",no significant change
same,LD50,"[6]; mouse, in vivo, po",> 1000 mg/kg body weight
same,change in animal behavior or body mass,"[6]; mouse, in vivo, po, 1000 mg/kg",No significant change
same,concentration required to significantly reduce cell growth,LAPC4 cells,≥ 60 µM
same,AR protein levels,[2],did not affect androgen receptor protein levels; also recorded: did not result in altered AR protein levels; also recorded: not significantly altered
same,LNCaP cell growth in presence of growth inhibitory R1881,"LNCaP cells; 1.0 nM R1881, 10 μM to 30 μM compound",significant stimulation
same,shift of R1881-stimulated biphasic LNCaP growth curve,LNCaP cells; 30 μM compound,shifted to the right
same,concentration significantly inhibiting R1881-stimulated LNCaP growth,"LNCaP cells; LNCaP, 0.1 nM R1881",≥ 10 µM
same,R1881 concentration giving in control cells the growth response equivalent to that at 0.3 nM R1881 under treatment,"LNCaP cells; LNCaP, 30 μM compound",0.03 nM
same,concentration at which LNCaP cell growth was decreased,"LNCaP cells; LNCaP, FIG. 3B",≥ 40 µM
same,growth modulatory (AR agonist) activity in androgen-deficient media,"LNCaP cells; LNCaP, no R1881, 10 μM to 30 μM",no growth modulatory activity
same,inhibition of R1881-stimulated PSA release,"[3]; 0.05 nM R1881, 30 μM compound",completely inhibited
same,decrease of R1881-stimulated PSA levels,"[3]; 1.0 nM R1881, 30 μM compound",80% and 81%
same,"PSA release from LNCaP cells, compound alone","[3]; 30 μM, no R1881",not affected
same,inhibition at 30 µM,"[3]; Homo sapiens, LNCaP, 0.05 nM R1881, 30 μM compound, read-out: inhibition of R1881-stimulated PSA release",100%
"C[C@]1(O)CC[C@H]2[C@@H]3CCC4=CC(=O)CCC4=C3C=C[C@@]21C [R1881, methyltrienolone, reference compound]",increase in luciferase expression,"[5]; 1.0 nM R1881, 24 h",54 fold
same,increase in MMTV/LTR driven luciferase expression,[7]; 1.0 nM R1881,20 fold
same,increase in PSA levels,[3]; 0.05 nM R1881,3.1 fold
same,increase in PSA levels,[3]; 1.0 nM R1881,12 fold
COc1cc(/C=C/C(=O)CC(=O)/C=C/c2ccc(O)c(OC)c2)ccc1O [curcumin],effect on AR protein levels,[8],down-regulate androgen receptor protein levels
"Cc1c(C)c2c(c(C)c1O)CC[C@@](C)(CCC[C@H](C)CCC[C@H](C)CCCC(C)C)O2 [vitamin E, α-tocopherol]",solubility in water,[9],practically insoluble in water
"CC(O)(CS(=O)(=O)c1ccc(F)cc1)C(=O)Nc1ccc(C#N)c(C(F)(F)F)c1 (stereo not shown) [bicalutamide, reference compound]",decrease of R1881-stimulated luciferase expression,"[5]; 1.0 nM R1881, 1 μM compound",approximately 50%
same,decrease of R1881-stimulated luciferase expression,"[7]; 1.0 nM R1881, 1 μM compound",approximately 50%
same,R1881 concentration giving in control cells the growth response equivalent to that at 0.3 nM R1881 under treatment,"LNCaP cells; LNCaP, 1 μM compound",0.03 nM
same,decrease of R1881-stimulated PSA levels,"[3]; 1.0 nM R1881, 1 μM compound",43%
